Consider two substances from patent US20080160019A1, “SEQUENTIAL COMBINATION THERAPY” (DYAX CORP., priority 2006, published 2008).

In assay [1] the test system is BxPC-3 human pancreas cancer model. Description: BxPC-3 pancreas cancer model, dosing schedules, mean tumor volume (Example 5). It counts as in vivo, nude mice (nu/nu). As to conditions: 20 mg/kg IP Q2D x10 from day 1, implanted tumor fragments. Here is the method:
Female nude mice (nu/nu) were divided into 14 groups. Animals in groups 1-12 were implanted subcutaneously by trocar with BxPC3 tumor fragments harvested from growing tumors in nude mice hosts. Mice in groups 13-14 were injected subcutaneously with approximately 1×10^7 BxPC-3 cells from tissue culture. When injected tumors grew to approximately 104 mm^3 in size (about 19 days following implantation) and implanted tumors grew to approximately 110 mm^3 in size (about 22 days following implantation) animals were pair-matched by tumor size into treatment and control groups. Animals from groups 1 and 2 were used to evaluate tumor vasculature. Animals from groups 13 and 14 were used to compare effects of DX-2240 on tumors formed from cell injection.
Treatment was initiated after the animals were pair-matched (day 1). Animals in all groups were dosed by weight (10 ml/kg). The control IgG and DX-2240 were administered by IP injection at 20 mg/kg, and bevacizumab and the rat α-mouse VEGF IgG antibody were administered by IP injection at 10 mg/kg once every three days. Dosing was initiated on day −3, 1, 5, 6, 10 or 20.
Individual and group mean tumor volumes were recorded twice weekly from day 1 until day 39.

Assay [2] relates to tumor vasculature. Description: Lectin staining of tumors (tumor vasculature, Example 5). On lectin staining, High intensity (3+): unit not given here. On lectin staining, Low intensity (1+): unit not given here. On lectin staining, Medium intensity (2+): unit not given here. It is filed as in vivo, nude mice (nu/nu). The note with it: for lectin staining, High intensity (3+) / lectin staining, Low intensity (1+) / lectin staining, Medium intensity (2+): 20 mg/kg IP Q2D from day 1, BxPC3 tumors. Here is the method:
To determine changes in tumor vasculature, three animals from each of groups 1 and 2 were randomly selected for destructive sample collection, including tumor and serum on days 5, 10, 15, and 20. Animals were injected IV with 150 μL of a biotinylated-lectin solution (no injections on day 5 and 15). Five minutes later, animals were perfused by intracardiac injection with a 1% paraformaldehyde solution in PBS for 3 minutes. Tumors were then collected, placed in the perfusion solution, and sent immediately for analysis. Blood was collected by cardiac puncture and serum extracted, flash frozen in liquid nitrogen, and stored at −80° C.

For assay [3], the system named is DU 145 human prostate tumor model. Description: DU 145 prostate tumor model, mean tumor volume (Example 6). It counts as in vivo, nude mice (nu/nu). The note with it: 20 mg/kg IP Q2D x17 from day 1. On the procedure:
Male nude mice (nu/nu) were injected subcutaneously with DU 145 cells harvested from tissue culture (˜1×10^7 cells/mouse). When tumors grew to approximately 95 mm^3 in size (about 7 days following injection), animals were pair-matched by tumor size into treatment and control groups.
Treatment was initiated after the animals were paired-matched (day 1). Animals in control and treatment groups were dosed by weight (10 ml/kg). DX-2240 and the control IgG (palivizumab) were administered by IP injection either once every other day for seventeen treatments beginning day 1 or once every four days for nine treatments beginning day 1. Sorafenib was dosed per os via gavage once daily for nine treatments beginning day 15. To serve as a control, the control IgG was administered every other day for seventeen treatments beginning day 1. Individual and group mean tumor volumes were recorded twice weekly from day 1 until day 57.

The target of assay [4] is Tie1 (Homo sapiens, UniProt P35590). The note with it: cited from earlier work.
The test system of assay [5] is BxPC3 (human pancreatic cancer cell line) tumor. Description: Pancreatic cancer xenograft model, tumor size by calipers (Example 3). On calculated tumor growth rate, After Avastin: unit not given here. On calculated tumor growth rate, Before Avastin (Day 10): unit not given here. On calculated tumor growth rate, Before Avastin (Day 21): unit not given here. It counts as in vivo, nude mice (nu/nu). The note with it: for tumor size as compared to control: as single agents; for Tumor volume: 20 mg/kg IP Q2d from day 1. On the procedure:
The antitumor activity of combinations of DX-2240 and bevacizumab (anti-VEGF antibody) or sorafenib (multi-kinase inhibitor) were tested in a human tumor xenograft model. BxPC3 (human pancreatic cancer cell line) tumor fragments harvested from host nude mice (nu/nu) bearing subcutaneous BxPC-3 tumors were implanted subcutaneously into female nude mice (study animals) and allowed to form tumors. Mice were pair matched by tumor size and randomized into the various treatment groups when the tumors reached approximately 100 mm^3 (about 18 days following tumor implantation). The animals were assorted into the treatment groups shown in Table 1 (“Start” refers to the day on which treatment was begun). DX-2240 was administered by intraperitoneal (IP) injection at 20 mg/kg; bevacizumab was administered by IP injection at 10 mg/kg, sorafenib was administered orally at 60 mg/kg (for a total of 9 doses), and the control IgG (palivizumab, an antibody of the same isotype as DX-2240) was administered by IP injection at 20 mg/kg at the indicated dosing start dates and dosing regimens. An additional positive control group (group 13) was included: these animals were dosed with gemcitabine at 40 mg/kg Q3d for a total of four doses.
Tumor size was evaluated every three to four days using calipers.

For assay [6], the system named is DU145 prostate cancer cells. Description: Prostate cancer xenograft model, tumor volume (Example 4). It counts as in vivo, athymic nu/nu mice. As to conditions: bevacizumab alone at 12 mg/kg, Q5d. On the procedure: DU145 prostate cancer cells were injected subcutaneously into athymic nu/nu mice and tumors were allowed to form. Animals were assorted into groups of 9-10 mice, then treated with DX-2240 (20 mg/kg by IP injection, […]), an isotype-matched antibody control (A2, 20 mg/kg by IP injection, Q2d), bevacizumab (12 mg/kg by IP injection, […]), DX-2240 20 mg/kg Q2d+bevacizumab (DX-2240 20 mg/kg Q2d+bevacizumab at 12 mg/kg, […], starting at day 25), DX-2240 20 mg/kg Q4d+bevacizumab (DX-2240 20 mg/kg Q4d+bevacizumab at 12 mg/kg, […], starting at day 25), DX-2240 10 mg/kg Q4d+bevacizumab (DX-2240 10 mg/kg Q4d+bevacizumab at 12 mg/kg, […], starting at day 25), DX-2240 5 mg/kg Q4d+bevacizumab (DX-2240 5 mg/kg Q4d+bevacizumab at 12 mg/kg, […], starting at day 25), DX-2240 1 mg/kg Q4d+bevacizumab (DX-2240 1 mg/kg Q4d+bevacizumab at 12 mg/kg, […], starting at day 25), DX-2240+sorafenib (DX-2240 at 20 mg/kg by IP injection, […], sorafenib at 100 mg/kg orally (PO) daily for nine days (QDx9) starting at day 25 and 56), or A2+sorafenib (A2 at 20 mg/kg by IP injection, […], sorafenib 100 mg/kg PO QDx9 starting at day 25 and 56). After day 34, mice in the DX-2240 only and A2 only groups were given an additional agent, and were no longer available as controls for this experiment. Tumor volume was measured twice weekly.

Chain of Tie1 (P35590 22-1138): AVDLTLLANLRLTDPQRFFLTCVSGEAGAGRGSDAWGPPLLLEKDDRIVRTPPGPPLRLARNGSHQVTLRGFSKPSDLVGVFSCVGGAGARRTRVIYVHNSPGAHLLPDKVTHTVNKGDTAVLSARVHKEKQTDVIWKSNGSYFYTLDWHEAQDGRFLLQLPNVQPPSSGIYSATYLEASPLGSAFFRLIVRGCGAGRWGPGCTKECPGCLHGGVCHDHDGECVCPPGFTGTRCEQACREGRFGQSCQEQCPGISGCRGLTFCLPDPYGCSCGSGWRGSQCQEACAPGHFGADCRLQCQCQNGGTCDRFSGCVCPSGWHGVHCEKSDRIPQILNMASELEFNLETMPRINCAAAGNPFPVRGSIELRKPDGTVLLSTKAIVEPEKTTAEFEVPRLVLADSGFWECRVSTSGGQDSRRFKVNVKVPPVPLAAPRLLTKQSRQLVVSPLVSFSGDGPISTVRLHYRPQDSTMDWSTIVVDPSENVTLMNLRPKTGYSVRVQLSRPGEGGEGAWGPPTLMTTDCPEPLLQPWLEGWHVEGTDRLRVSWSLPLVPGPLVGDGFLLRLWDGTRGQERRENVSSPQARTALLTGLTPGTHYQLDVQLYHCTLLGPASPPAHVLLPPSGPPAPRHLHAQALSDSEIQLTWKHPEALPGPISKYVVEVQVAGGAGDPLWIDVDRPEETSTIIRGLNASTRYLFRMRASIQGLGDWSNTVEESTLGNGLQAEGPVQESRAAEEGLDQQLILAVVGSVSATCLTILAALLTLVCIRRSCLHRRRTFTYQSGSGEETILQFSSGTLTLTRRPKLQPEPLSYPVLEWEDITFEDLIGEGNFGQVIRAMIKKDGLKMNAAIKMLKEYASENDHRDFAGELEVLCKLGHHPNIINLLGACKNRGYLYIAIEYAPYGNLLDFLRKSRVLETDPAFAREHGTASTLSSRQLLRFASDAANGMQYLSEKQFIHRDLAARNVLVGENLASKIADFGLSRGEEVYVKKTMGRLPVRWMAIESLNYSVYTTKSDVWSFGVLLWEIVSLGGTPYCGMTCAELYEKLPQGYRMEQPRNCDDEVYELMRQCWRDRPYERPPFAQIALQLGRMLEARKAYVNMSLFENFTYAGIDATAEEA

For the substance “DX-2240: Germlined F allotyped E3 antibody, Tie1 ectodomain-binding (SEQ ID NO:10-13)”, the mean tumor volume in assay [1] (day 1) came to 107.7 mm^3; in assay [1] (day 4) it was 157.7 mm^3; in assay [1] (day 8) it was 194.2 mm^3; in assay [1] (day 11), 199.0 mm^3; in assay [1] (day 15), 308.7 mm^3; in assay [1] (day 18), 289.1 mm^3. Also, the mean tumor volume in assay [3] (day 1) is 94.6 mm^3; in assay [3] (day 5) it was 162.6 mm^3; in assay [3] (day 9), 269.3 mm^3; in assay [3] (day 13), 417.3 mm^3; in assay [3] (day 15) it was 460.0 mm^3; in assay [3] (day 19), 553.9 mm^3. Moreover, the mean tumor volume in assay [3] (day 23) was found to be 644.4 mm^3; in assay [3] (day 26), 707.1 mm^3; in assay [3] (day 29), 737.8 mm^3; in assay [3] (day 33) it was 866.7 mm^3; in assay [3] (day 36), 1008.3 mm^3. Also, the “lectin staining of tumors as compared to control animals” value in assay [2] (DX-2240 20 mg/kg IP Q2D) was “less lectin staining”. Moreover, the functional tumor vasculature result in assay [2] (DX-2240-treated animals) was “less functional tumor vasculature”. Also, the “lectin staining, High intensity (3+)” value in assay [2] (Day 10) is given as 92134; in assay [2] (Day 20), 5922. For the same substance, the “lectin staining, Low intensity (1+)” value in assay [2] (Day 10) was 909706; in assay [2] (Day 20) it was 122022. In addition, the “lectin staining, Medium intensity (2+)” value came out at 3468512 in assay [2] (Day 10) and 205406 in assay [2] (Day 20). For the same substance, the Tie1 tyrosine phosphorylation result in assay [4] is recorded as “induce”. Also, the Tie complex formation entry in assay [4] is on record as “induce”. For the same substance, the “down modulation of Tie1 from the cell surface” value in assay [4] is “induce”. In addition, the “Tie1/Tie2 heterodimers on the surface of cells expressing Tie1 and Tie2” value in assay [4] (e.g., endothelial cells) is recorded as “down-modulation”. In addition, the “calculated tumor growth rate, After Avastin” value in assay [5] (DX-2240 or control IgG 20 mg/kg IP Q2d from day 1, after bevacizumab 10 mg/kg IP Q3d (twenty day pretreatment groups)) is 18.6 ± 8.0; in assay [5] (DX-2240 or control IgG 20 mg/kg IP Q2d from day 1, after bevacizumab 10 mg/kg IP Q3d started at day 10), 12.2 ± 3.3. The “calculated tumor growth rate, Before Avastin (Day 21)” value in assay [5] (DX-2240 or control IgG 20 mg/kg IP Q2d from day 1, before bevacizumab (twenty day pretreatment groups)) is on record as 23.1 ± 6.6. In addition, in assay [5] (DX-2240 or control IgG 20 mg/kg IP Q2d from day 1, before bevacizumab start at day 10), the “calculated tumor growth rate, Before Avastin (Day 10)” value is on record as 23.9 ± 4.9. For the same substance, the “# of stable tumor growths or tumor regressions” value was 2/8 in assay [5] (DX-2240 or control IgG from day 1, bevacizumab (Avastin) after twenty day pretreatment) and 1/6 in assay [5] (DX-2240 or control IgG from day 1, bevacizumab (Avastin) from day 10). Also, in assay [5], the “tumor size as compared to control” value is reported as “reduced tumor size”. The Tumor volume amounted to 105.6 mm^3 in assay [5] (day 1); 139.9 mm^3 in assay [5] (day 3); 223.1 mm^3 in assay [5] (day 7); 331.6 mm^3 in assay [5] (day 10); 460.5 mm^3 in assay [5] (day 14); 724.4 mm^3 in assay [5] (day 21). Moreover, the Tumor volume in assay [5] (day 24) came out at 954.1 mm^3; in assay [5] (day 28) it was 1171.1 mm^3; in assay [5] (day 31), 1351.4 mm^3.

Turning to bevacizumab: anti-VEGF antibody, the tumor size entry in assay [6] is on record as “tumor shrinkage”. Further, the “tumor size as compared to control” value in assay [5] is “reduced tumor size”.
